What was measured:
[1] = patients that do not have heart failure or use insulin; cited from earlier work
[2] = cited from earlier work
[3] = cited from earlier work; for myocardial necrosis: young and mature rats
[4] = normotensive rats; cited from earlier work
[5] = rats 3 months to 2 years old, dosed over two days; cited from earlier work
[6] = set-up: species or system male Sprague-Dawley rats; conditions: rat, in vivo, iv
Protocol: Amphotericin B is a polyene, antifungal antibiotic used to treat fungal infections. Its clinical utility is limited by its nephrotoxicity and cardiotoxicity.
The low and high dose level for each compound are provided in the chart below.
Heart • A sagittal cross-section containing portions of the two atria and of the two ventricles was preserved in 10% NBF. The remaining heart was frozen in liquid nitrogen and stored at ˜−80° C.

[7] = intravenous injection, four hours post-dose; cited from earlier work
[8] = cited from earlier work; remark: listed apart in the source
[9] = of 19 women treated with cyclophosphamide, thiotepa, and carboplatin; cited from earlier work
[10] = child, high-dose cyclophosphamide; cited from earlier work
[11] = cited from earlier work; remark: listed apart in the source
[12] = high-dose patients; cited from earlier work
cellular glutathione = conditions: cited from earlier work
[13] = rat, in vivo; cited from earlier work
[14] = person, small quantity ingested; cited from earlier work
[15] = cited from earlier work; remark: listed apart in the source

Structure (SMILES): CN(CCOc1ccc(CC2SC(=O)NC2=O)cc1)c1ccccn1 (centres unmarked) [rosiglitazone]
- edema [1]: moderate-to-severe edema

Structure (SMILES): COc1cccc2c1C(=O)c1c(O)c3c(c(O)c1C2=O)C[C@@](O)(C(=O)CO)C[C@@H]3O[C@H]1C[C@H](N)[C@@H](O)[C@H](C)O1 [epirubicin]
- of these patients, deteriorated into congestive heart failure ([2]; human, in vivo): 20%
- patients with a 25% relative reduction in left ventricular ejection fraction ([2]; three years after epirubicin treatment, 120 patients): Approximately 59%

Structure (SMILES): Nc1cc(N2CCCCC2)nc(N)[n+]1[O-] [minoxidil]
- myocardial necrosis [3]: Myocardial necrosis was observed in both age groups
- cardiac enlargement [4]: enlargement of the left ventricle, right ventricle, and interventricular septum
- heart lesions [5]: interstitial hemorrhages at all dose levels

Structure (SMILES): C[C@@H]1[C@H](O)[C@@H](C)/C=C/C=C/C=C/C=C/C=C/C=C/C=C/[C@H](O[C@@H]2O[C@H](C)[C@@H](O)[C@H](N)[C@@H]2O)C[C@@H]2O[C@](O)(C[C@@H](O)C[C@@H](O)[C@H](O)CC[C@@H](O)C[C@@H](O)CC(=O)O[C@H]1C)C[C@H](O)[C@H]2C(=O)O [amphotericin B]
- cardiomyopathy [6]: some early signs of cardiomyopathy

Structure (SMILES): CC(C)NCC(O)c1ccc(O)c(O)c1 (centres unmarked) [isoproterenol]
- myocardial necrosis [3]: Myocardial necrosis was observed in both age groups

Structure (SMILES): NNc1nncc2ccccc12 [hydralazine]
- blood pressure and heart rate effects ([3]; rat, in vivo): Hypotension and reflex tachycardia
- myocardial necrosis [3]: Myocardial necrosis was observed in both age groups
- early focal myocardial lesions (histopathology) [7]: Lesions were observed

Structure (SMILES): C[C@H](CS)C(=O)N1CCC[C@H]1C(=O)O [captopril]
- serum enzyme levels and white blood cell counts ([8]; captopril pre-treatment before adriamycin): significant reduction in serum enzyme levels as well as restoration of white blood cell counts

Structure (SMILES): O=P1(N(CCCl)CCCl)NCCCO1 (centres unmarked) [cyclophosphamide]
- patients who developed moderate congestive heart failure [9]: six
- cardiac findings [10]: cardiac arrhythmias and intractable hypotension
- patients with clinical cardiotoxicity who were in the high-dose group ([11]; out of five patients who developed clinical cardiotoxicity): four
- left ventricular mass index ([11]; twice-daily high-dose treatment (174+/−34 mg/kg), within a week): increase in left ventricular mass index
- patients who died of congestive heart failure [12]: Six

Structure (SMILES): C=CC=O [Acrolein, acrolein]
- cellular glutathione levels (cellular glutathione): decrease cellular glutathione levels

Structure (SMILES): CC(C)(C)NCC(O)c1cc(Cl)c(N)c(Cl)c1 (centres unmarked) [clenbuterol]
- muscle hypertrophy [13]: hypertrophy of the heart and latissimus dorsi muscle
- clinical findings after ingestion [14]: sustained sinus tachycardia, hypokalemia, hypophosphatemia, and hypomagnesemia
- aortic root dimensions ([15]; in vivo): significantly increased aortic root dimensions
- left ventricular dimensions ([15]; vs exercised and control mares): significantly higher left ventricular internal dimension and interventricular septal wall thickness at end diastole

Structure (SMILES): COc1cccc2c1C(=O)c1c(O)c3c(c(O)c1C2=O)C[C@@](O)(C(=O)CO)C[C@@H]3O[C@H]1C[C@H](N)[C@H](O)[C@H](C)O1 [adriamycin, doxorubicin]
- serum enzymes (myocardial toxicity) ([8]; rat, in vivo): elevation of serum enzymes such as aspartate transaminase, lactate dehydrogenase, and creatine phosphokinase
